Reference: article PMC12388801, “Identification of Bioactive Peptides from Caenorhabditis elegans Secretions That Promote Indole-3-Acetic Acid Production in Arthrobacter pascens ZZ21” (Microorganisms, 2025)
Read-outs that look alike come from different tables or passages of the source. Peptide text beside a SMILES is read from it.

Test: Solubility assessment of synthetic candidate peptides
Description: Candidate peptide sequences identified by LC-MS/MS were synthesized using GenScript Biotech (Nanjing, China). Peptide solubility was tested in various solvents to determine optimal conditions for functional assays. Initial screening was performed in 30 mL of inorganic salt medium with 200 mg/L L-tryptophan. A. pascens ZZ21 was inoculated at 1% (v/v), and peptides were tested at 1 ppm and 0.1 ppm. The peptides were dissolved according to their solubility profiles, with corresponding solvent controls: CK-A (1 ppm blank) and CK-B (0.1 ppm blank). Cultures were incubated at 30 °C, 250 rpm for 48 h, after which IAA levels in the supernatants were measured.
This analysis was conducted by Biotech Pack Scientific Co., Ltd. (Beijing, China).

[1] = synthetic peptide, ultrapure water, N/A = lower than 0.1 mg/mL
[2] = synthetic peptide, N/A = lower than 0.1 mg/mL

SMILES | Solubilty in ultrapure water [1] | Solubilty in ultrapure water | Solubilty in 0.1 M PBS [2] | Solubilty in DMSO [2]
CC(C)C[C@H](NC(=O)CNC(=O)[C@H](Cc1ccccc1)NC(=O)[C@H](C)NC(=O)[C@H](CC(C)C)NC(=O)[C@H](C)NC(=O)[C@H](CC(C)C)NC(=O)[C@@H](N)[C@@H](C)O)C(=O)N[C@H](C(=O)N[C@@H](C)C(=O)O)[C@@H](C)O [Peptide P12] (H-TLALAFGLTA-OH) | N/A (N/A indicates solubility lower than 0.1 mg/mL) |  |  | 
CC(C)[C@H](NC(=O)[C@H](CCC(=O)O)NC(=O)[C@H](C)NC(=O)[C@H](Cc1ccccc1)NC(=O)[C@H](CCC(=O)O)NC(=O)[C@H](C)N)C(=O)N[C@@H](CO)C(=O)N[C@@H](CCCCN)C(=O)O [Peptide P6] (H-AEFAEVSK-OH) |  | ≤ 5 mg/mL |  | 
CC(C)C[C@H](NC(=O)CNC(=O)[C@H](CC(C)C)NC(=O)[C@H](C)NC(=O)[C@H](C)NC(=O)[C@H](CO)NC(=O)[C@H](C)NC(=O)[C@H](C)NC(=O)[C@H](CCC(N)=O)NC(=O)[C@H](CC(C)C)NC(=O)[C@@H](N)C(C)C)C(=O)O [Peptide P24] (H-VLQAASAALGL-OH) | N/A (N/A indicates solubility lower than 0.1 mg/mL) |  | N/A (N/A indicates solubility lower than 0.1 mg/mL) | 
CC(C)C[C@H](NC(=O)[C@H](C)NC(=O)[C@H](CC(N)=O)NC(=O)CN)C(=O)N[C@@H](C)C(=O)N[C@H](C(=O)N[C@@H](CCCNC(=N)N)C(=O)O)[C@@H](C)O [Peptide P1] (H-GNALATR-OH) |  |  | N/A (N/A indicates solubility lower than 0.1 mg/mL) | 
CC(C)[C@H](NC(=O)[C@H](C)NC(=O)[C@@H](NC(=O)[C@H](C)NC(=O)[C@H](CO)NC(=O)CN)C(C)C)C(=O)NCC(=O)N[C@@H](CCCNC(=N)N)C(=O)O [Peptide P5] (H-GSAVAVGR-OH) |  |  | N/A (N/A indicates solubility lower than 0.1 mg/mL) | 
CC(C)[C@H](N)C(=O)N[C@H](C(=O)N[C@@H](CC(=O)O)C(=O)N[C@H](C(=O)N[C@@H](CO)C(=O)N[C@@H](CCC(=O)O)C(=O)N[C@H](C(=O)N[C@@H](Cc1ccccc1)C(=O)N[C@@H](Cc1ccccc1)C(=O)N[C@@H](CCCCN)C(=O)O)C(C)C)C(C)C)[C@@H](C)O [Peptide P28] (H-VTDVSEVFFK-OH) | N/A (N/A indicates solubility lower than 0.1 mg/mL) |  | N/A (N/A indicates solubility lower than 0.1 mg/mL) | 
CC(C)C[C@H](NC(=O)CNC(=O)[C@H](CO)NC(=O)[C@@H](N)CC(=O)O)C(=O)N[C@H](C(=O)N[C@@H](CC(C)C)C(=O)N[C@@H](CCCCN)C(=O)O)C(C)C [Peptide P11] (H-DSGLVLK-OH) |  |  | N/A (N/A indicates solubility lower than 0.1 mg/mL) | N/A (N/A indicates solubility lower than 0.1 mg/mL)
CC(C)C[C@H](NC(=O)[C@H](CO)NC(=O)[C@H](CC(C)C)NC(=O)[C@H](CC(=O)O)NC(=O)[C@H](CC(C)C)NC(=O)[C@@H](N)Cc1ccccc1)C(=O)N[C@@H](CCCCN)C(=O)O [Peptide P18] (H-FLDLSLK-OH) | N/A (N/A indicates solubility lower than 0.1 mg/mL) |  | N/A (N/A indicates solubility lower than 0.1 mg/mL) | 
CC(C)C[C@H](NC(=O)[C@H](CCC(N)=O)NC(=O)[C@@H]1CCCN1)C(=O)N[C@@H](CCC(=O)O)C(=O)N[C@H](C(=O)N[C@@H](CC(C)C)C(=O)N[C@H](C(=O)N1CCC[C@H]1C(=O)N[C@@H](CC(N)=O)C(=O)O)C(C)C)C(C)C [Peptide P20] (H-PQLEVLVPN-OH) | N/A (N/A indicates solubility lower than 0.1 mg/mL) |  | N/A (N/A indicates solubility lower than 0.1 mg/mL) | 
CC(C)C[C@H](NC(=O)[C@H](CCC(N)=O)NC(=O)[C@@H]1CCCN1)C(=O)N[C@@H](CCC(=O)O)C(=O)N[C@@H](CC(C)C)C(=O)N[C@H](C(=O)N[C@H](C(=O)N1CCC[C@H]1C(=O)N[C@@H](CC(N)=O)C(=O)O)C(C)C)C(C)C [Peptide P22] (H-PQLELVVPN-OH) | N/A (N/A indicates solubility lower than 0.1 mg/mL) |  | N/A (N/A indicates solubility lower than 0.1 mg/mL) | 
CC(C)C[C@H](NC(=O)[C@H](CCC(N)=O)NC(=O)[C@H](CC(C)C)NC(=O)[C@@H](NC(=O)[C@@H](N)CC(C)C)C(C)C)C(=O)N[C@@H](CC(=O)O)C(=O)N[C@@H](CC(N)=O)C(=O)N[C@@H](C)C(=O)N[C@@H](CCCCN)C(=O)O [Peptide P13] (H-LVLQLDNAK-OH) | N/A (N/A indicates solubility lower than 0.1 mg/mL) |  | N/A (N/A indicates solubility lower than 0.1 mg/mL) | 
CC(C)C[C@H](NC(=O)[C@H](Cc1ccccc1)NC(=O)[C@H](CC(=O)O)NC(=O)[C@@H](NC(=O)[C@H](CC(C)C)NC(=O)[C@@H](N)[C@@H](C)O)C(C)C)C(=O)N[C@@H](CCCNC(=N)N)C(=O)O [Peptide P25] (H-TLVDFLR-OH) | N/A (N/A indicates solubility lower than 0.1 mg/mL) |  | N/A (N/A indicates solubility lower than 0.1 mg/mL) | 
CC(C)C[C@H](NC(=O)[C@H](CC(C)C)NC(=O)[C@H](CC(N)=O)NC(=O)[C@@H](NC(=O)[C@H](CO)NC(=O)[C@@H](NC(=O)[C@@H]1CCCN1C(=O)[C@@H](N)CCC(=O)O)[C@@H](C)O)C(C)C)C(=O)N[C@@H](C)C(=O)N[C@@H](CCC(=O)O)C(=O)O [Peptide P29] (H-EPTSVNLLAE-OH) | N/A (N/A indicates solubility lower than 0.1 mg/mL) |  | N/A (N/A indicates solubility lower than 0.1 mg/mL) | 
CC(C)C[C@H](NC(=O)[C@H](CC(=O)O)NC(=O)[C@@H](NC(=O)[C@@H](NC(=O)[C@@H](N)CC(C)C)[C@@H](C)O)C(C)C)C(=O)N[C@@H](Cc1ccccc1)C(=O)N[C@@H](CCCNC(=N)N)C(=O)O [Peptide P27] (H-LTVDLFR-OH) | N/A (N/A indicates solubility lower than 0.1 mg/mL) |  | N/A (N/A indicates solubility lower than 0.1 mg/mL) | 
CC(C)C[C@H](NC(=O)[C@H](C)NC(=O)[C@@H](NC(=O)CNC(=O)[C@@H](NC(=O)[C@H](CO)NC(=O)[C@@H](NC(=O)[C@@H]1CCCN1C(=O)[C@@H](N)CCC(=O)O)[C@@H](C)O)C(C)C)C(C)C)C(=O)N[C@@H](C)C(=O)N[C@@H](CCC(=O)O)C(=O)O [Peptide P30] (H-EPTSVGVALAE-OH) | N/A (N/A indicates solubility lower than 0.1 mg/mL) |  |  | N/A (N/A indicates solubility lower than 0.1 mg/mL)
CC(C)C[C@H](NC(=O)[C@H](CCC(=O)O)NC(=O)[C@H](Cc1ccc(O)cc1)NC(=O)[C@H](Cc1ccc(O)cc1)NC(=O)[C@@H](N)CC(C)C)C(=O)N[C@@H](C)C(=O)N[C@@H](CCCNC(=N)N)C(=O)O [Peptide P14] (H-LYYELAR-OH) | N/A (N/A indicates solubility lower than 0.1 mg/mL) |  | N/A (N/A indicates solubility lower than 0.1 mg/mL) | 
